From patent publication US5532263A, “Benzothiopyranoindazole antitumor agents” (priority 1995, dated 1996)
pEC50, pIC50: −log10 of the molar value. Counter-ions that a name gives are not always drawn. Like-named read-outs stand apart in the source and are kept apart here.

How the values were obtained:
[1] = tested on: P388 mouse leukemia cells; experiment: In vitro cytotoxicity: clonogenic survival in soft agar; type: cell-based; conditions: read-out: in vitro cytox IC50
Experimental: In Vitro Cytotoxicity This is measured by quantifying clonogenic survival in soft agar following a 1 hour transient exposure of P388 mouse leukemia cells to drug.

HeLa cell topo II = HeLa cell topo II (Homo sapiens, UniProt P11388); experiment: Topoisomerase II inhibition: promotion of covalent complex formation between pBR322 DNA and topo II (SDS/K+ precipitation); type: biochemical; conditions: read-out: topo II inhib EC50
HeLa cell topo II, sequence (P11388 whole entry): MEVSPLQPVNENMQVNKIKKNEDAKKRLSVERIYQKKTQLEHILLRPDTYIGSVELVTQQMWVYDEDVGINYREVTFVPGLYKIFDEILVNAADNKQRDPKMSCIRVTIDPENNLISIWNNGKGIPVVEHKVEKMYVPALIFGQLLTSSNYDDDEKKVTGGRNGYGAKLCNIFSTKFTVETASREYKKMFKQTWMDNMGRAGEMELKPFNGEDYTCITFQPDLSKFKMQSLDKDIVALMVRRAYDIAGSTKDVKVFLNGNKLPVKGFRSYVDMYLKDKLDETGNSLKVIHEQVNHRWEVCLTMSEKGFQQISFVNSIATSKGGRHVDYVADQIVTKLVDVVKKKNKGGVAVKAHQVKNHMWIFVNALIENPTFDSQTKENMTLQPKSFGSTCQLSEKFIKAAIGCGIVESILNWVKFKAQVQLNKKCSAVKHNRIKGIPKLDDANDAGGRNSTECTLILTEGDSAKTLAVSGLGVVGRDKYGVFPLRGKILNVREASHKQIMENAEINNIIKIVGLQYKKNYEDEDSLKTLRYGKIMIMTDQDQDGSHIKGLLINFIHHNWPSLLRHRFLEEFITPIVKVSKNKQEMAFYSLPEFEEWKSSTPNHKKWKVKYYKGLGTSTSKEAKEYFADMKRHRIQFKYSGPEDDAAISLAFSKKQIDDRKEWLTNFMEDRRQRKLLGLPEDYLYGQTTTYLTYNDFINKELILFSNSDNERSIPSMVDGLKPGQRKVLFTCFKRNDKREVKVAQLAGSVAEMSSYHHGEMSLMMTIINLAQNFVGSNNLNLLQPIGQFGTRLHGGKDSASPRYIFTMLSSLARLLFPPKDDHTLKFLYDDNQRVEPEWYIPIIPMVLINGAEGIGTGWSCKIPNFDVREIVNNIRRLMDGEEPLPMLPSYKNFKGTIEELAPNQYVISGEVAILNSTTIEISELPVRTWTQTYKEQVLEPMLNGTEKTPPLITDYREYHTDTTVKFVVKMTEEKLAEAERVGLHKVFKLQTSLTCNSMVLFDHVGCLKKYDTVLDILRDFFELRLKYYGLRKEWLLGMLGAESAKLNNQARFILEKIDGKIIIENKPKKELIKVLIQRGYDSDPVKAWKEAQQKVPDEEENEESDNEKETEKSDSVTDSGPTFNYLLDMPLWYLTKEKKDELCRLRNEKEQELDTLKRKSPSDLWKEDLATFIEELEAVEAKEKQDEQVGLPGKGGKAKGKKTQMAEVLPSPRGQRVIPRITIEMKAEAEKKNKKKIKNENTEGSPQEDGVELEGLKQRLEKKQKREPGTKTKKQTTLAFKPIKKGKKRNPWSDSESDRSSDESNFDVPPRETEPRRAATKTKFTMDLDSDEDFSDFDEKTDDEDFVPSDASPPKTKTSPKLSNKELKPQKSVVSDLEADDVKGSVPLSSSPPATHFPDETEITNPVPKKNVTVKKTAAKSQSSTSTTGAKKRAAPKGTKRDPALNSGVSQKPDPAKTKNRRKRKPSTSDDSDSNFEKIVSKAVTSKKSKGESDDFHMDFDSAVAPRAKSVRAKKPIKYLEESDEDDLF

calf thymus DNA = experiment: DNA intercalation: ethidium bromide displacement assay; type: binding; conditions: displacement of 50% of calf thymus DNA bound ethidium bromide; average of two determinations
Excerpt: A known ethidium bromide displacement assay is used to determine intercalation potency.

[2] = Murine antitumor activity versus Pancreatic Ductal Adenocarcinoma #03; type: in vivo; conditions: mouse, in vivo, iv; administered intravenously, total dose; mice, Panc 03 study; read-out: MTD (maximum tolerated total dose)
Excerpt: (§1) Murine Antitumor Activaty Versus Pancreatic Ductal Adenocarcinoma #03.
(§2) This is tumor growth inhibition, where T is the medium tumor burden in the treatment group times 100 at evaluation and C is the medium tumor burden in the control group at evaluation.
(§3) This is the maximum tolerated total dose administered intravenously in mg/kg.
(§4) This means the long term cures, the number of mice in the treatment group with no palpable tumor evidents after a minimum of 86 days/total number in treatment group. […]

[3] = tested on: Pancreatic Ductal Adenocarcinoma #03 (Panc 03); experiment: as above; type: in vivo; conditions: versus Panc 03; for % T/C (tumor growth inhibition): intravenous, T/C <42% considered significant; for LTC (long term cures): mice with no palpable tumor after a minimum of 86 days/total number in treatment group
Excerpt: as §1, §2, §3, §4

[4] = tested as an antitumor agent (literature); cited from earlier work
[5] = P388, 1 hour transient exposure, 50% reduction of clonogenic survival in soft agar
[6] = footnote k: bell-shaped dose response curve noted when determining the EC50, relative to 50% of m-AMSA maximum
[7] = footnote j: first dose administered 4 days after tumor implantation
[8] = DNA precipitated equivalent to 50% of the maximum precipitated by m-AMSA

SMILES	pIC50 [1, 5]	pEC50 (HeLa cell topo II; [6])	pEC50 (calf thymus DNA)	MTD [2] [mg/kg]	% T/C (tumor growth inhibition) [3, 7] [%]	LTC (long term cures) [3]	pEC50 (HeLa cell topo II; [8])	% T/C (tumor growth inhibition) [3] [%]	pIC50 ([1]; P388, 1 h)	antitumor activity [4]
CCN(CC)CCn1nc2c3c(c(CNS(C)(=O)=O)ccc31)Sc1ccc(O)cc1-2 [Ex 15]	8.36	6.26	5.62	31	0	0/5	–	–	–	–
CCN(CC)CCn1nc2c3c(c(CNC(=O)OC)ccc31)Sc1ccc(O)cc1-2 [Ex 16]	7.96	6.48	5.82	18	13	0/5	–	–	–	–
CCN(CC)CCn1nc2c3c(c(CNS(C)(=O)=O)ccc31)Sc1ccc(OC)cc1-2 [Ex 12]	4.52	–	5.80	208	–	3/5	< 3.68	0	–	–
CCN(CC)CCn1nc2c3c(c(CN)ccc31)Sc1ccccc1-2 [Ex 8]	5.24	–	6.92	72	25	0/5	< 3.60	–	–	–
CCN(CC)CCn1nc2c3c(c(CNC(=O)OC)ccc31)Sc1ccc(OC)cc1-2 [Ex 14]	4.35	–	6.10	170	0	4/4	< 3.66	–	–	–
CCN(CC)CCNc1ccc(CN(C)S(C)(=O)=O)c2sc3ccccc3c(=O)c12 [WIN33377, reference compound]	6.52	5.52	4.74	124	–	3/5	–	0	–	–
CCN(CC)CCn1nc2c3c(c(CNS(C)(=O)=O)ccc31)Sc1ccccc1-2 [Ex 11, N-[[2-[2-(Diethylamino)ethyl]-2H-[1]-benzothiopyrano[4,3,2-cd]indazol-5-yl]methyl]methanesulfonamide]	6.30	–	5.74	72	–	0/5	< 3.64	0	–	–
CCN(CC)CCn1nc2c3c(c(CNC=O)ccc31)Sc1ccccc1-2 [Ex 5]	6.48	–	5.82	81	–	0/5	< 3.59	0	–	–
COc1cc(NS(C)(=O)=O)ccc1Nc1c2ccccc2nc2ccccc12 [mAMSA, reference compound]	–	–	4.96	48	–	0/5	–	0	6.82	–
CCN(CC)CCn1nc2c3c(c(CN)ccc31)Sc1ccc(OC)cc1-2 [Ex 9]	4.89	–	6.89	240	0	3/4	< 3.59	–	–	–
CCN(CC)CCn1nc2c3c(c(CNC)ccc31)Sc1ccccc1-2 [Ex 10, N-methyl-2-[(2-(Diethylamino)ethyl]-2H-[1]-benzothiopyrano[4,3,2-cd]indazole-5-methanaminedihydrochloride hydrate]	4.80	–	6.74	326	–	1/5	< 3.66	0	–	–
CCN(CC)CCn1nc2c3c(c(CNC=O)ccc31)Sc1ccc(OC)cc1-2 [Ex 6]	4.26	–	5.72	231	–	3/5	< 3.62	0	–	–
CCN(CC)CCn1nc2c3c(c(CNC(=O)OC)ccc31)Sc1ccccc1-2 [Ex 13, Methyl N-[[2-[(2-diethylamino)ethyl]-2H-[1]-benzothiopyrano(4,3,2-cd)indazol-5-yl]methyl) carbamate]	6.30	–	5.59	78	–	3/5	< 3.62	0	–	–
Cc1ccc2[nH]nc3c2c1Sc1ccccc1-3 [5-methyl-2H-[1]benzothiopyrano[4,3,2-cd]indazole]	–	–	–	–	–	–	–	–	–	inactive
